According to EP4745137A1 (Gluetacs Therapeutics (Shanghai) Co., Ltd., priority 2023, dated 2025):

What was measured:
WEE1 = molecular target: T1, WEE1 (Homo sapiens, UniProt P30291+Q96SW2); experiment: Western-blot assay of substrate protein degradation in hPBMCs, WEE1; assay type: cell-based; conditions: 24 hours of compound treatment
T1 construct: endogenous in cells; host or cells: hPBMCs (Milecell Biotechnologies)

GSPT1 = molecular target: T2, GSPT1 (Homo sapiens, UniProt P15170+Q96SW2); experiment: Western-blot assay of substrate protein degradation in hPBMCs, GSPT1; assay type: cell-based; conditions: 24 hours of compound treatment
T2 construct: endogenous in cells; host or cells: hPBMCs (Milecell Biotechnologies)

IKZF3 = molecular target: T3, IKZF3 (Homo sapiens, UniProt Q96SW2+Q9UKT9); experiment: Western-blot assay of substrate protein degradation in hPBMCs, IKZF3; assay type: cell-based; conditions: 24 hours of compound treatment
T3 construct: endogenous in cells; host or cells: hPBMCs (Milecell Biotechnologies)
T3 sequence (Q9UKT9 whole entry): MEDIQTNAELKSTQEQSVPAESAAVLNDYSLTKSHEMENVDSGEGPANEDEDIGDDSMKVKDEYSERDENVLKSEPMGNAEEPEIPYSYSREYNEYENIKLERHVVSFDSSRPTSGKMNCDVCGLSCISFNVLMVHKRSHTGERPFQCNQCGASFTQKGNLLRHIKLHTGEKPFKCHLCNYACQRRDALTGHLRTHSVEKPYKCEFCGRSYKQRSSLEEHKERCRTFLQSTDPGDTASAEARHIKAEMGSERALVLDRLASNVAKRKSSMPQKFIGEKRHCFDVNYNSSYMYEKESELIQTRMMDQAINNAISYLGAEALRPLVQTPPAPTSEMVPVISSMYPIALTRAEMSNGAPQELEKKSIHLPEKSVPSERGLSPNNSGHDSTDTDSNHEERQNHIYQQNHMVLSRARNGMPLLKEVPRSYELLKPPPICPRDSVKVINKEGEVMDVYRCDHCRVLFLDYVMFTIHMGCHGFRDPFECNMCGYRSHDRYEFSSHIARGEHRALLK
T3 sequence (Q96SW2 whole entry): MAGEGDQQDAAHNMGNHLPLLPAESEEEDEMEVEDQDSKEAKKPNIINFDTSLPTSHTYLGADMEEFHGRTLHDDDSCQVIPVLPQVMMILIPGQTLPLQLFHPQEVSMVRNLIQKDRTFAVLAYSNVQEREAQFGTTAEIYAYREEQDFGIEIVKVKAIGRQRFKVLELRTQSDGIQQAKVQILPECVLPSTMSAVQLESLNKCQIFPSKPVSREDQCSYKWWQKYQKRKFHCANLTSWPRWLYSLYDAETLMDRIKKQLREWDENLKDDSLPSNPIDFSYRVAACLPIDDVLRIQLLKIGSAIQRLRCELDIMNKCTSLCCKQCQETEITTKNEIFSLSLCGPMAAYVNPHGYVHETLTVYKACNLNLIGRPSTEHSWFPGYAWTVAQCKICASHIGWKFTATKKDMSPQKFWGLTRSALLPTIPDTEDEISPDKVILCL
T3 sequence (Q16531 whole entry partner): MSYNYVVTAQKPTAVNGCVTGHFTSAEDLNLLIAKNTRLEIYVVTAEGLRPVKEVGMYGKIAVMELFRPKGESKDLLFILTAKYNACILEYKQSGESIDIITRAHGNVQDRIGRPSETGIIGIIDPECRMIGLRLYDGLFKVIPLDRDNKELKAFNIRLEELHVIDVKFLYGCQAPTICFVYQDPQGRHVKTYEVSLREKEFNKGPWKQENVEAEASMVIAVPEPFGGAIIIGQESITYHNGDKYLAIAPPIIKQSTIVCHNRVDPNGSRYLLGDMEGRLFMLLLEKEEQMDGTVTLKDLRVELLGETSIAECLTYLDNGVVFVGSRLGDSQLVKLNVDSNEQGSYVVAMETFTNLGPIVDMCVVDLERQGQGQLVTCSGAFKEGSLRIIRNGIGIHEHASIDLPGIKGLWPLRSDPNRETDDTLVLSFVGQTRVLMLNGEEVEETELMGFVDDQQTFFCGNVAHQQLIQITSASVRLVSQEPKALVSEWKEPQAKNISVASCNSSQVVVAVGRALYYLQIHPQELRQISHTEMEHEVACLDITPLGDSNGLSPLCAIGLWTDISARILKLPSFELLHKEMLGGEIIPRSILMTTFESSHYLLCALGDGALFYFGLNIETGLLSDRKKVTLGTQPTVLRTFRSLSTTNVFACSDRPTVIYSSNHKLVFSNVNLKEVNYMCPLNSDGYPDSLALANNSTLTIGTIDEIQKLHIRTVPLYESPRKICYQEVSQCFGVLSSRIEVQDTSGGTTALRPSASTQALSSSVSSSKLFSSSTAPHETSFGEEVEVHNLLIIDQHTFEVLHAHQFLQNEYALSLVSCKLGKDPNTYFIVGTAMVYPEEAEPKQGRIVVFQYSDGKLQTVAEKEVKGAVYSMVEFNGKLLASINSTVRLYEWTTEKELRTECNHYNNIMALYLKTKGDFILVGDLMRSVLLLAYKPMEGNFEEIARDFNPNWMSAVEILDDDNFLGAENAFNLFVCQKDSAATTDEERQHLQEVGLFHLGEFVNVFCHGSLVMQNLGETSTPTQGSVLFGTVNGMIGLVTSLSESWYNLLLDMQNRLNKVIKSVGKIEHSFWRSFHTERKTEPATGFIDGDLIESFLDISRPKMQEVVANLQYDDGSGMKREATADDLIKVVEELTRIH

IKZF1 = molecular target: T4, IKZF1 (Homo sapiens, UniProt Q13422+Q96SW2); experiment: Western-blot assay of substrate protein degradation in hPBMCs, IKZF1; assay type: cell-based; conditions: 24 hours of compound treatment
T4 construct: endogenous in cells; host or cells: hPBMCs (Milecell Biotechnologies)
T4 sequence (Q13422 whole entry): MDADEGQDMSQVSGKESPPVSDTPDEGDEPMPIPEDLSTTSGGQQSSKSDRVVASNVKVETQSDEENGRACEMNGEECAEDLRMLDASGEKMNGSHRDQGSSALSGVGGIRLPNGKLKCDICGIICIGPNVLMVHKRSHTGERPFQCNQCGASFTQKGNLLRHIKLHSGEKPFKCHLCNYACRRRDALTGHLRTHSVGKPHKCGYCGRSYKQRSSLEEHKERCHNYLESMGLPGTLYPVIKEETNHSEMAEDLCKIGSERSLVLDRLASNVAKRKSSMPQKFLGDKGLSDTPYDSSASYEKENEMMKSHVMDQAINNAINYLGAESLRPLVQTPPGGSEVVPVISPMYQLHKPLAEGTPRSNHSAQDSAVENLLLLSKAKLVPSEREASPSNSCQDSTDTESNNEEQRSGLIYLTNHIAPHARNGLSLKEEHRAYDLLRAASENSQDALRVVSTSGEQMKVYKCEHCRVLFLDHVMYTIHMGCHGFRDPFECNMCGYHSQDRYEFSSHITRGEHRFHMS
T4 sequence (Q96SW2 whole entry): as the sequence (Q96SW2 whole entry) above
T4 sequence (Q16531 whole entry partner): as the sequence (Q16531 whole entry partner) above

IKZF2 = molecular target: T5, IKZF2 (Homo sapiens, UniProt Q96SW2+Q9UKS7); experiment: Western-blot assay of substrate protein degradation in hPBMCs, IKZF2; assay type: cell-based; conditions: 24 hours of compound treatment
T5 construct: endogenous in cells; host or cells: hPBMCs (Milecell Biotechnologies)
T5 sequence (Q9UKS7 whole entry): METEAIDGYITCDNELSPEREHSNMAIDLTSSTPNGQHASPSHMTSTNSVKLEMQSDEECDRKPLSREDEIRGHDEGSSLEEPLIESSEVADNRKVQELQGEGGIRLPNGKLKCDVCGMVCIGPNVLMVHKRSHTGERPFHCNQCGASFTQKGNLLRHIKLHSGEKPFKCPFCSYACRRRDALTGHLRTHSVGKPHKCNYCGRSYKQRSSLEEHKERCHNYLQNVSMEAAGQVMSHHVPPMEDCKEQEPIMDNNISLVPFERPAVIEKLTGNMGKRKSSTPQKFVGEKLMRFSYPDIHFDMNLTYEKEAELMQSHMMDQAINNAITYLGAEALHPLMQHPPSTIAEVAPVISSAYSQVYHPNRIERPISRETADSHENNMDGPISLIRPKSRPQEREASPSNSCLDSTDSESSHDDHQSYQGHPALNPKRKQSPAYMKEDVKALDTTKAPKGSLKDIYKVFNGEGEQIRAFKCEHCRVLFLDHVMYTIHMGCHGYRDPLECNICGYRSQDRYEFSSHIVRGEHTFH
T5 sequence (Q96SW2 whole entry): as the sequence (Q96SW2 whole entry) above
T5 sequence (Q16531 whole entry partner): as the sequence (Q16531 whole entry partner) above

[1] = molecular target: T6, human Cereblon WT GST-tagged protein (Homo sapiens, UniProt Q96SW2); experiment: CRBN-binding affinity by HTRF (CEREBLON BINDING kit); conditions: HTRF inhibitory activity, CEREBLON BINDING kit; read-out: HTRF IC50
T6 construct: purchased CISBIO 64BDCRBNPEH
T6 sequence (Q96SW2 whole entry): as the sequence (Q96SW2 whole entry) above

CK1α = molecular target: T7, CK1α (Homo sapiens, UniProt P48729+Q96SW2); experiment: Western-blot assay of substrate protein degradation in hPBMCs, CK1α; assay type: cell-based; conditions: 24 hours of compound treatment
T7 construct: endogenous in cells; host or cells: hPBMCs (Milecell Biotechnologies)
T7 sequence (P48729 whole entry): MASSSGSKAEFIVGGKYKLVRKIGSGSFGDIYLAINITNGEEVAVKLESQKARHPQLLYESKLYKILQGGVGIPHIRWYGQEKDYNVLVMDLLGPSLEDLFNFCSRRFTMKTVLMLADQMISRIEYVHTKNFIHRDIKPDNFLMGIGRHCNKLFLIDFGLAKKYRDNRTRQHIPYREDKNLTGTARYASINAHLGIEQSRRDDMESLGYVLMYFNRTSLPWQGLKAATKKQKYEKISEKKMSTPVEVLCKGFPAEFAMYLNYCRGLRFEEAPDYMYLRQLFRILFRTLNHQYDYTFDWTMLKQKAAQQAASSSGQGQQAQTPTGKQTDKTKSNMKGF
T7 sequence (Q96SW2 whole entry): as the sequence (Q96SW2 whole entry) above
T7 sequence (Q16531 whole entry partner): as the sequence (Q16531 whole entry partner) above

[2] = 50 nM and 500 nM tested (concentration behind the class not stated)
[3] = compounds tested at 50 nM and 500 nM (concentration of the table not stated)

T1 sequence (P30291 whole entry): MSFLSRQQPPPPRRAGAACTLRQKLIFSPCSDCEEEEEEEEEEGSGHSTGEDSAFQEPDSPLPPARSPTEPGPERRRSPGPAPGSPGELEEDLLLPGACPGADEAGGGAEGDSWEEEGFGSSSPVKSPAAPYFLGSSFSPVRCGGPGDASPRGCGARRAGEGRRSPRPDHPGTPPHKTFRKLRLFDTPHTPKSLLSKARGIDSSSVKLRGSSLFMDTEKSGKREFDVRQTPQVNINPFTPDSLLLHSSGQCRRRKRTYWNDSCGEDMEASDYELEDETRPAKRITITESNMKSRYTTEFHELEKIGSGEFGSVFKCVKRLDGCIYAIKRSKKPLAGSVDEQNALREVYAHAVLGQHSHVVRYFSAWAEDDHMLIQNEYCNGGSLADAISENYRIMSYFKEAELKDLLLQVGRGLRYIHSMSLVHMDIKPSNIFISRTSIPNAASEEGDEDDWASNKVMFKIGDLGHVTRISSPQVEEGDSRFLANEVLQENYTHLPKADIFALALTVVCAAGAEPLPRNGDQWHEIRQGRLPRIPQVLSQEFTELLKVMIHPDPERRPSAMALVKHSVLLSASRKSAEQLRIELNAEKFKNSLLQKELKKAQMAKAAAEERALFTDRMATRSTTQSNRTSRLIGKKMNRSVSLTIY
T1 sequence (Q96SW2 whole entry): as the sequence (Q96SW2 whole entry) above
T1 sequence (Q16531 whole entry partner): as the sequence (Q16531 whole entry partner) above

Row | Compound | Weel substrate protein remaining % (WEE1; [2]) | GSPT1 substrate protein remaining % (GSPT1; [2]) | IKZF3 substrate protein remaining % (IKZF3; [2]) | IKZF 1 substrate protein remaining % (IKZF1; [2]) | IKZF2 substrate protein remaining % (IKZF2; [2]) | IC50 [1] | CK1a substrate protein remaining % (CK1α; [2]) | Weel substrate protein remaining % (WEE1; [3]) | GSPT1 substrate protein remaining % (GSPT1; [3]) | IKZF3 substrate protein remaining % (IKZF3; [3]) | IKZF 1 substrate protein remaining % (IKZF1; [3]) | IKZF2 substrate protein remaining % (IKZF2; [3]) | CK1a substrate protein remaining % (CK1α; [3])
1 | Cc1ccc(C2=CCN(Cc3ccc4c(c3)C(=O)N(C3CCC(=O)NC3=O)C4=O)CC2)s1 (stereo not drawn) [GT-06220, 2-(2,6-dioxopiperidin-3-yl)-5-((4-(5-methylthiophen-2-yl)-3,6-dihydropyridin-1(2H)-yl)methyl)isoindoline-1,3-dione] | A (0% ≤ substrate protein remaining % ≤ 80%) | A (0% ≤ substrate protein remaining % ≤ 80%) | A (0% ≤ substrate protein remaining % ≤ 80%) | A (0% ≤ substrate protein remaining % ≤ 80%) | A (0% ≤ substrate protein remaining % ≤ 80%) | 1500 to 1900 nM | A (0% ≤ substrate protein remaining % ≤ 80%) | – | – | – | – | – | –
2 | O=C1CCC(N2C(=O)c3ccc(CN4CC=C(c5ccco5)CC4)cc3C2=O)C(=O)N1 (stereo not drawn) [GT-06222, 2-(2,6-dioxopiperidin-3-yl)-5-((4-(furan-2-yl)-3,6-dihydropyridin-1(2H)-yl)methyl)isoindoline-1,3-dione] | A (0% ≤ substrate protein remaining % ≤ 80%) | A (0% ≤ substrate protein remaining % ≤ 80%) | A (0% ≤ substrate protein remaining % ≤ 80%) | A (0% ≤ substrate protein remaining % ≤ 80%) | A (0% ≤ substrate protein remaining % ≤ 80%) | 1000 to 1500 nM | A (0% ≤ substrate protein remaining % ≤ 80%) | – | – | – | – | – | –
3 | O=C1CCC(N2C(=O)c3ccc(CN4CC=C(c5ccoc5)CC4)cc3C2=O)C(=O)N1 (stereo not drawn) [GT-06223, 2-(2,6-dioxopiperidin-3-yl)-5-((4-(furan-3-yl)-3,6-dihydropyridin-1(2H)-yl)methyl)isoindoline-1,3-dione] | A (0% ≤ substrate protein remaining % ≤ 80%) | A (0% ≤ substrate protein remaining % ≤ 80%) | A (0% ≤ substrate protein remaining % ≤ 80%) | A (0% ≤ substrate protein remaining % ≤ 80%) | B (80%< substrate protein remaining %≤ 100%) | 1000 to 1500 nM | A (0% ≤ substrate protein remaining % ≤ 80%) | – | – | – | – | – | –
4 | O=C1CCC(N2C(=O)c3ccc(CN4CCC(=C5CCOc6cc(F)ccc65)CC4)cc3C2=O)C(=O)N1 (stereo not drawn) [GT-06238, 2-(2,6-dioxopiperidin-3-yl)-5-((4-(7-fluorochroman-4-ylidene)piperidin-1-yl)methyl)isoindoline-1,3-dione] | – | – | – | – | – | 1000 to 1500 nM | – | B (80%< substrate protein remaining %≤ 100%) | A (0% ≤ substrate protein remaining % ≤ 80%) | A (0% ≤ substrate protein remaining % ≤ 80%) | B (80%< substrate protein remaining %≤ 100%) | A (0% ≤ substrate protein remaining % ≤ 80%) | B (80%< substrate protein remaining %≤ 100%)
5 | Cc1csc2ncnc(N3CCN(Cc4ccc5c(c4)C(=O)N(C4CCC(=O)NC4=O)C5=O)CC3)c12 (stereo not drawn) [GT-06304, 2-(2,6-dioxopiperidin-3-yl)-5-((4-(5-methylthieno[2,3-d]pyrimidin-4-yl)piperazin-1-yl)methyl)isoindoline-1,3-dione] | B (80%< substrate protein remaining %≤ 100%) | B (80%< substrate protein remaining %≤ 100%) | B (80%< substrate protein remaining %≤ 100%) | A (0% ≤ substrate protein remaining % ≤ 80%) | A (0% ≤ substrate protein remaining % ≤ 80%) | 500 to 1000 nM | B (80%< substrate protein remaining %≤ 100%) | – | – | – | – | – | –
6 | CC(C)c1cc2c(N3CCN(Cc4ccc5c(c4)C(=O)N(C4CCC(=O)NC4=O)C5=O)CC3)ncnc2s1 (stereo not drawn) [GT-06306, 2-(2,6-dioxopiperidin-3-yl)-5-((4-(6-isopropylthieno[2,3-d]pyrimidin-4-yl)piperazin-1-yl)methyl)isoindoline-1,3-dione] | B (80%< substrate protein remaining %≤ 100%) | A (0% ≤ substrate protein remaining % ≤ 80%) | A (0% ≤ substrate protein remaining % ≤ 80%) | A (0% ≤ substrate protein remaining % ≤ 80%) | A (0% ≤ substrate protein remaining % ≤ 80%) | 1500 to 1900 nM | A (0% ≤ substrate protein remaining % ≤ 80%) | – | – | – | – | – | –
7 | O=C1CCC(N2C(=O)c3ccc(CN4CCN(c5ncnc6sc(Br)cc56)CC4)cc3C2=O)C(=O)N1 (stereo not drawn) [GT-06309, 5-((4-(6-bromothieno[2,3-d]pyrimidin-4-yl)piperazin-1-yl)methyl)-2-(2,6-dioxopiperidin-3-yl)isoindoline-1,3-dione] | B (80%< substrate protein remaining %≤ 100%) | B (80%< substrate protein remaining %≤ 100%) | A (0% ≤ substrate protein remaining % ≤ 80%) | A (0% ≤ substrate protein remaining % ≤ 80%) | A (0% ≤ substrate protein remaining % ≤ 80%) | 1500 to 1900 nM | B (80%< substrate protein remaining %≤ 100%) | – | – | – | – | – | –
8 | Cc1nc(N2CCN(Cc3ccc4c(c3)C(=O)N(C3CCC(=O)NC3=O)C4=O)CC2)c2c3c(sc2n1)CCCC3 (stereo not drawn) [GT-06348, 2-(2,6-dioxopiperidin-3-yl)-5-((4-(2-methyl-5,6,7,8-tetrahydrobenzo[4,5]thieno[2,3-d]pyrimidin-4-yl)piperazin-1-yl)methyl)isoindoline-1,3-dione] | A (0% ≤ substrate protein remaining % ≤ 80%) | A (0% ≤ substrate protein remaining % ≤ 80%) | A (0% ≤ substrate protein remaining % ≤ 80%) | A (0% ≤ substrate protein remaining % ≤ 80%) | A (0% ≤ substrate protein remaining % ≤ 80%) | 1000 to 1500 nM | A (0% ≤ substrate protein remaining % ≤ 80%) | – | – | – | – | – | –
9 | O=C1CCC(N2C(=O)c3ccc(CN4CCN(c5ncnc6sc7c(c56)CCCC7)CC4)cc3C2=O)C(=O)N1 (stereo not drawn) [GT-06564, 2-(2,6-dioxopiperidin-3-yl)-5-((4-(5,6,7,8-tetrahydrobenzo[4,5]thieno[2,3-d]pyrimidin-4-yl)piperazin-1-yl)methyl)isoindoline-1,3-dione] | A (0% ≤ substrate protein remaining % ≤ 80%) | A (0% ≤ substrate protein remaining % ≤ 80%) | A (0% ≤ substrate protein remaining % ≤ 80%) | A (0% ≤ substrate protein remaining % ≤ 80%) | A (0% ≤ substrate protein remaining % ≤ 80%) | 500 to 1000 nM | A (0% ≤ substrate protein remaining % ≤ 80%) | – | – | – | – | – | –
10 | O=C1CCC(N2C(=O)c3ccc(CN4CCN(c5ncnc6sc7c(c56)CCC7)CC4)cc3C2=O)C(=O)N1 (stereo not drawn) [GT-06565, 5-((4-(6,7-dihydro-5H-cyclopenta[4,5]thieno[2,3-d]pyrimidin-4-yl)piperazin-1-yl)methyl)-2-(2,6-dioxopiperidin-3-yl)isoindoline-1,3-dione] | A (0% ≤ substrate protein remaining % ≤ 80%) | A (0% ≤ substrate protein remaining % ≤ 80%) | A (0% ≤ substrate protein remaining % ≤ 80%) | A (0% ≤ substrate protein remaining % ≤ 80%) | A (0% ≤ substrate protein remaining % ≤ 80%) | 1000 to 1500 nM | A (0% ≤ substrate protein remaining % ≤ 80%) | – | – | – | – | – | –
11 | Cc1nc(N2CCN(Cc3ccc4c(c3)C(=O)N(C3CCC(=O)NC3=O)C4=O)CC2)c2c3c(sc2n1)CCC3 (stereo not drawn) [GT-06566, 2-(2,6-dioxopiperidin-3-yl)-5-((4-(2-methyl-6,7-dihydro-5H-cyclopenta[4,5]thieno[2,3-d]pyrimidin-4-yl)piperazin-1-yl)methyl)isoindoline-1,3-dione] | A (0% ≤ substrate protein remaining % ≤ 80%) | A (0% ≤ substrate protein remaining % ≤ 80%) | A (0% ≤ substrate protein remaining % ≤ 80%) | A (0% ≤ substrate protein remaining % ≤ 80%) | A (0% ≤ substrate protein remaining % ≤ 80%) | 500 to 1000 nM | A (0% ≤ substrate protein remaining % ≤ 80%) | – | – | – | – | – | –
12 | O=C1CCC(N2C(=O)c3ccc(CN4CCN(c5ncc6ccsc6n5)CC4)cc3C2=O)C(=O)N1 (stereo not drawn) [GT-06567, 2-(2,6-dioxopiperidin-3-yl)-5-((4-(thieno[2,3-d]pyrimidin-2-yl)piperazin-1-yl)methyl)isoindoline-1,3-dione] | A (0% ≤ substrate protein remaining % ≤ 80%) | A (0% ≤ substrate protein remaining % ≤ 80%) | B (80%< substrate protein remaining %≤ 100%) | B (80%< substrate protein remaining %≤ 100%) | B (80%< substrate protein remaining %≤ 100%) | 1000 to 1500 nM | A (0% ≤ substrate protein remaining % ≤ 80%) | – | – | – | – | – | –
